This is an account of results in patent US10561658B2, “Thieno- and pyrrolopyrimidine analogues as anticancer agents and methods of use thereof” (UNIVERSITY OF MARYLAND, BALTIMORE COUNTY, priority 2015, dated 2020).

For one experiment, the system named is melanoma tumor. Kind of experiment: In vivo activity screen, intra-tumor injection. More on the design: species or system mice. As to conditions: intra-tumor injection 0.01 mg/100 mm^3 tumor, 5 days on/2 days off, 21 days. From the text:
The asterisk denotes […] when compared to the vehicle only (n=6-10 mice). Melanoma is viewed as resistant to nucleoside analogues, since traditional FDA-approved nucleosides have minimal effects on growth inhibition (100-90% growth percent) and apoptosis (5-10% cell death).

Experiment [1] has as its system human lymphocytic CEM cells. Kind of experiment: Cell proliferation assay, CEM. The experiment is classed as cell-based. The note with it: CCRF-CEM, 72 h proliferation, Coulter counter. How it is done: (§1) Cell proliferation assays for several of the compounds were performed on L1210, a mouse lymphocytic leukemia cell line; CCRF-CEM [39] an acute lymphoblastic leukemia cell line; and HeLa, a human cancer cell line derived from a human cervical adenocarcinoma. Murine Leukemia L1210, human lymphocytic CEM and human cervix carcinoma HeLa cells were obtained from the American Type Culture Collection (ATCC) (Rockville, Md.). All assays were performed in 96-well microtiter plates. To each well were added (5-7.5)×10^4 tumor cells and a given amount of the test compound. The cells were allowed to proliferate for 48 h (murine leukemia L1210 cells) or 72 h (human lymphocytic CEM and human cervix carcinoma HeLa cells) at 37° C. in a humidified CO2-controlled atmosphere. At the end of the incubation period, the cells were counted in a Coulter counter. The IC50 (50% inhibitory concentration) was defined as the concentration of the compound that inhibited cell proliferation by 50%. […] Presence of C7 iodine on the 2,4-dichloro pyrrolo[3,2-d] (compound 20) increases the anticancer activity by a factor of 5 when compared to compound 19. […] This alludes to a) importance of C7-I towards activity against cancer cell lines for the 2,4-O-benzylated analogues (15 and 16).

Experiment [2] deals with human cervix carcinoma HeLa cells. Description: Cell proliferation assay, HeLa. Type of experiment: cell-based. As to conditions: 72 h proliferation, Coulter counter. The protocol: as §1
A further experiment deals with MDA-MB-231 cells. Kind of experiment: Apoptosis (annexin V), MDA-MB-231. The note with it: MDA-MB-231, tested concentration. Type of experiment: cell-based, human. How it is done:
Cell-cycle and apoptosis studies were conducted in MDA-MB-231 cells. Cell-cycle analysis of compound 19 at 15 μM concentration lead to arrest of 60% cells in G2/M stage. Similarly, at 1.75 μM concentration, compound 20 arrested 30% of cells in G2/M stage. […] To evaluate the possible mechanism for arrest of cell proliferation, cell-cycle distribution was measured using propidium iodide staining and flow cytometry. […] There are several possibilities that could account for this, including: (i) that cell lysis occurs rapidly following induction of apoptosis, preventing significant accumulation of annexin V-positive bodies, or (ii) that a distinct cell death pathway is triggered by compound 19.

The subject of experiment [3] is susceptible fungal strains. Kind of experiment: Antifungal MIC95 comparison on susceptible fungal strains. The note with it: MIC95, Table 3 fungal strains. Type of experiment: cell-based. How it is done:
Evaluation of antimicrobial activity in vitro. Compounds were tested against the following panel of bacteria and fungi purchased from the American Type Culture Collection (ATCC). Briefly, bacteria were grown to mid-log phase, diluted with fresh medium to an optical density at 600 nm (OD600) of 0.030-0.060 and then diluted again 1:10. This suspension (195 μL) was added to wells in a 96 well microtiter plate (Sarstedt) and 5 μL of compound dissolved in DMSO was added to give a final concentration of 100-0.1 μM at 2.5% DMSO by volume. A DMSO negative control and standard antibiotic positive controls were included in each plate. All compounds were tested in triplicate for each concentration. Plates were sealed with parafilm, placed in a Ziploc bag to prevent evaporation, and incubated at 30° C. (fungi) or 37° C. (bacteria) for 16-20 hours (48 hours for C. neoformans). The OD600 values for each well were determined with a plate reader (Biotek, EL800) and the data were standardized to the DMSO control wells after subtracting the background from blank medium. Initial single concentrations were tested at 100 μM and active compounds were further tested with at least nine concentrations for a full dose response. Dose response curves were generated using GraphPad Prism 5 software and used to determine the MIC95 concentrations (minimal concentration that inhibits 95% of growth). […]

`Clc1nc(Cl)c2sccc2n1` [Compound 1, 2,4-Dichlorothieno[3,2-d]pyrimidine]: the “anti-cancer activity (tumor responsiveness) in vivo” value with melanoma tumor was “comparable to the current standard of care, temozolomide”.

As to `Clc1nc(Cl)c2[nH]ccc2n1` [Compound 19, 2,4-Dichloropyrrolo[3,2-d]pyrimidine], the IC50 was 25 µM in experiment [1] and 19 µM in experiment [2]. For the same compound, in the experiment on MDA-MB-231 cells, the “annexin V-positive cells” value is given as “modest (although statistically significant) increase”.

In the case of `Clc1nc(Cl)c2scc(Br)c2n1` [Compound 2, 7-Bromo-2,4-dichlorothieno[3,2-d]pyrimidine], the “times more potent than compound 1” value in experiment [3] was 2-5.
